Test results as given in US20210228551A1, “THERAPEUTIC AGENT FOR HUMORAL IMMUNITY-RELATED DISEASES IN MATERNOFETAL RELATIONSHIP” (priority 2018, published 2021).
Entries after “also recorded” stand apart in the source; their conditions may differ.

What was measured:
Format in all cases: in vivo, human
anti-D antibody = experiment: Anti-D antibody titer by indirect Coombs test in a patient treated with tacrolimus
Description: (§1) The measurement is carried out by the indirect Coombs test. The indirect Coombs test is a test in which an anti-immunoglobulin antibody is added to a mixture of the blood serum of a patient and the blood of a healthy person to examine whether a hemagglutination reaction occurs (irregular antibody present in the blood serum is detected) (for the Coombs test, see, for example, Nissan Women's Journal Vol. 59, No. 10, N-617-N-623). The patient is a person having blood type A. The patient suffering from a blood type incompatible pregnancy with negative maternal Rho (D) and positive fetal Rho (D) was subjected to the following treatments. That is, at the time of the first pregnancy, anti-D immunoglobulin was not administered during pregnancy, sensitization was effected before delivery, and the anti-D antibody titer at the time of delivery was 8-fold. In week 39, they gave birth by emergency cesarean section due to placental abruption. […] The anti-D antibody titer obtained immediately after the establishment of pregnancy was 4-fold; however, the titer reached 16-fold in week 24 and reached 32-fold in week 26 (FIG. 1, upper part). After that, migration of fetal antigens to the parent's body via the placenta was assumed to further increase, and preparation of plasmapheresis and fetal blood transfusion was initiated in preparation for a rapid increase in the anti-D antibody titer. […] Furthermore, the blood flow velocity in the middle cerebral artery and the estimated body weight of the fetus were measured by fetal ultrasonography.

[1] = system: infecundity considered to be caused by an abnormality in the immune system; experiment: Tacrolimus treatment of infecundity: embryo transplantation outcome; details: tacrolimus 4 mg/day oral (2 mg morning, 2 mg evening); after five unsuccessful embryo transplantations
Description: Two years later, […] hoped to have a second child but suffered from infecundity and was treated for sterility by in vitro fertilization; however, since the treatment was unsuccessful after five embryo transplantations, a close examination of the immune system was conducted. At that time, a marked increase (24.9) in the Th1/Th2 (Th1 32.4, Th2 1.3) ratio was recognized, the illness was judged as infecundity considered to be caused by an abnormality in the immune system, and a tacrolimus treatment was selected.

[2] = system: blood type incompatible pregnancy with negative maternal Rho (D) and positive fetal Rho (D); experiment: Treatment of blood type incompatible pregnancy with tacrolimus: fetal and neonatal outcome
Excerpt: as §1, with “The” for “The measurement is carried out by the indirect Coombs test. The indirect Coombs test is a test in which an anti-immunoglobulin antibody is added to a mixture of the blood serum of a patient and the blood of a healthy person to examine whether a hemagglutination reaction occurs (irregular antibody present in the blood serum is detected) (for the Coombs test, see, for example, Nissan Women's Journal Vol. 59, No. 10, N-617-N-623). The”

[3] = Concentration of tacrolimus in the cord blood by chemiluminescence immunoassay (ECLIA); details: cord blood at delivery, maternal dose 5 mg/day oral
Th1 cells = experiment: Analysis of Th1 cells and Th2 cells by flow cytometry; details: maternal blood; week 28 of pregnancy; tacrolimus 4 mg/day oral
Description: For the purpose of evaluating the baseline value of the Th1/Th2 cell ratio, a total of 10 ml of venous blood was collected. Th1 cells and Th2 cells were determined by detecting the production of intracellular interferon (IFN)-γ and IL-4. Specific staining of lymphocytes was performed by incubating whole blood together with anti-CD4-PC5 or anti-CD8-PC5-conjugated monoclonal antibody (rAbs) (Beckman Coulter, Inc., Fullerton, Ca, USA). Red blood cells (RBCs) were removed by hemolysis (using FACS Lysing solution; Becton, Dickinson and Company, BD 134 Biosciences, Franklin Lake, N.J., USA), and lymphocytes were analyzed using flow cytometry (FACSCalibur; Becton, Dickinson and Company). Activated whole blood samples were surface-stained using anti-CD4-PC5-conjugate (Abs), and then RBC hemolysis and specific intracellular staining using FastImmune (trademark) IFN-γ-FITC/IL-4-PE (Becton, Dickinson and Company) were carried out in sequence according to the manufacturer's instructions for use. Th1 cells were defined as CD4^+ lymphocytes accompanied by intracellular IFN-γ but not by intracellular IL-4. Th2 cells were detected as CD4^+ lymphocytes accompanied by intracellular IL-4 but not by intracellular IFN-γ. The ratio of intracellular IFN-γ-positive Th cells with respect to intracellular IL-4-positive Th cells was expressed as the Th1/Th2 cell ratio.

[4] = fetal ultrasonography, tacrolimus 4 then 5 mg/day oral

## C=CCC1/C=C(\C)CC(C)CC(OC)C2OC(O)(C(=O)C(=O)N3CCCCC3C(=O)OC(/C(C)=C/C3CCC(O)C(OC)C3)C(C)C(O)CC1=O)C(C)CC2OC (centres unmarked) [tacrolimus, 17-Allyl-1,14-dihydroxy-12-[2-(4-hydroxy-3-methoxycyclohexyl)-1-methylvinyl]-23,25-dimethoxy-13,19,21,27-tetramethyl-11,28-dioxa-4-azatricyclo[22.3.1.04,9]octacos-18-ene-2,3,10,16-tetraone]
anti-D antibody; cord blood at delivery
  anti-D antibody titer in the cord blood: double
anti-D antibody; maternal, after dose increase to 5 mg/day in week 28 of pregnancy
  course of anti-D antibody titer / anti-D antibody production: the titer did not further increase and was stabilized; also recorded: the expected increase in the anti-D antibody titer did not occur at all; also recorded: the production of anti-D antibody was also suppressed
anti-D antibody; maternal, after dose increase to 5 mg/day oral (week 28) until delivery
  anti-D antibody titer: 32 fold
anti-D antibody; maternal, immediately after the establishment of pregnancy, tacrolimus 4 mg/day oral
  anti-D antibody titer: 4 fold
anti-D antibody; maternal, week 24 of pregnancy, tacrolimus 4 mg/day oral
  anti-D antibody titer: 16 fold
anti-D antibody; maternal, week 26 of pregnancy, tacrolimus 4 mg/day oral
  anti-D antibody titer: 32 fold
[1]
  establishment of pregnancy: Pregnancy was established by a single embryo transplantation
[2]; child at birth, maternal tacrolimus during the entire pregnancy
  malformations and physical functions of the child: no external malformations or visceral malformations and no problem with physical functions
[2]; delivery on day 2 of week 37
  birth weight of the child: 2834 g
[2]; [4]
  fetal anemia (increased blood flow velocity in the middle cerebral artery): without observing any fetal anemia; also recorded: fetal anemia did not develop during the entire course of pregnancy
  growth of the fetus (estimated body weight): The body weight smoothly increased; also recorded: growth of the child occurred without any problem
[2]; tacrolimus 4 then 5 mg/day oral
  maternal and fetal conditions / course of pregnancy: stable without complications
[3]
  concentration of tacrolimus in the cord blood: lower than or equal to the detection limit value
Th1 cells
  Th1 cell population: showed a tendency of increase again
